Reference: the supplement of paper PMC10307832

Legend:
Experiment in all cases: relative viability (nuclei count vs DMSO), 5 days (fraction); higher = more cells survive
FG-4592 + Tozasertib = compound: Cc1nc(C(=O)NCC(=O)O)c(O)c2ccc(Oc3ccccc3)cc12 [FG-4592] + Cc1cc(Nc2cc(N3CCN(C)CC3)nc(Sc3ccc(NC(=O)C4CC4)cc3)n2)n[nH]1 [Tozasertib] (partner 0.1 µM)
Procedure, shortened: (§1)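 Values are medians from duplicate plates. Each reflects relative viability, defined as the nuclei count of treated wells over that of vehicle wells. Lung cancer cell lines in 1536-well plates were pin-tool dosed one day after seeding with one drug alone or with a fixed anchor-drug dose plus five library-drug doses (not always all listed) in √10 steps, then fixed, stained and imaged at 4× after 5 days.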

FG-4592 + Olaparib = compound: Cc1nc(C(=O)NCC(=O)O)c(O)c2ccc(Oc3ccccc3)cc12 [FG-4592] + O=C(c1cc(Cc2n[nH]c(=O)c3ccccc23)ccc1F)N1CCN(C(=O)C2CC2)CC1 [Olaparib] (partner 8 µM)
Procedure, shortened: as §1

FG-4592 + Luminespib = compound: Cc1nc(C(=O)NCC(=O)O)c(O)c2ccc(Oc3ccccc3)cc12 [FG-4592] + CCNC(=O)c1noc(-c2cc(C(C)C)c(O)cc2O)c1-c1ccc(CN2CCOCC2)cc1 [Luminespib] (partner 0.01 µM)
Procedure, shortened: as §1

IU1-47 + Vorinostat = compound: CC1=CC(=C(N1C2=CC=C(C=C2)Cl)C)C(=O)CN3CCCCC3 [IU1-47] + O=C(CCCCCCC(=O)Nc1ccccc1)NO [Vorinostat] (partner 1 µM)
Procedure, shortened: as §1

| Cell Line | relative viability (FG-4592 + Tozasertib; first compound 0.08 µM) | relative viability (FG-4592 + Tozasertib; first compound 0.253 µM) | relative viability (FG-4592 + Tozasertib; first compound 0.8 µM) | relative viability (FG-4592 + Tozasertib; first compound 2.53 µM) | relative viability (FG-4592 + Tozasertib; first compound 8 µM) | relative viability (FG-4592 + Olaparib; first compound 0.08 µM) | relative viability (FG-4592 + Olaparib; first compound 0.253 µM) | relative viability (FG-4592 + Olaparib; first compound 0.8 µM) | relative viability (FG-4592 + Olaparib; first compound 2.53 µM) | relative viability (FG-4592 + Olaparib; first compound 8 µM) | relative viability (FG-4592 + Luminespib; first compound 0.08 µM) | relative viability (FG-4592 + Luminespib; first compound 0.253 µM) | relative viability (FG-4592 + Luminespib; first compound 0.8 µM) | relative viability (FG-4592 + Luminespib; first compound 2.53 µM) | relative viability (FG-4592 + Luminespib; first compound 8 µM) | relative viability (IU1-47 + Vorinostat; first compound 0.08 µM) | relative viability (IU1-47 + Vorinostat; first compound 0.253 µM) | relative viability (IU1-47 + Vorinostat; first compound 0.8 µM) | relative viability (IU1-47 + Vorinostat; first compound 2.53 µM) | relative viability (IU1-47 + Vorinostat; first compound 8 µM) |
| --- | --- | --- | --- | --- | --- | --- | --- | --- | --- | --- | --- | --- | --- | --- | --- | --- | --- | --- | --- | --- |
| EKVX | 0.397 | 0.403 | 0.47 | 0.412 | 0.387 | 0.748 | 0.844 | 0.721 | 0.901 | 0.905 | 0.842 | 0.807 | 0.81 | 0.891 | 0.9 | 0.951 | 0.632 | 0.846 | 0.573 | 0.631 |
| NCI-H358 | 0.106 | 0.111 | 0.115 | 0.113 | 0.091 | 0.55 | 0.552 | 0.662 | 0.579 | 0.695 | 0.311 | 0.36 | 0.426 | 0.395 | 0.238 | 0.828 | 0.708 | 0.72 | 0.781 | 0.619 |
| EPLC-272H | 0.24 | 0.286 | 0.204 | 0.378 | 0.271 | 0.665 | 0.633 | 0.886 | 0.74 | 0.697 | 0.455 | 0.241 | 0.212 | 0.295 | 0.228 | 0.382 | 0.55 | 0.494 | 0.394 | 0.461 |
| NCI-H1395 | 0.775 | 0.728 | 0.702 | 0.75 | 0.791 | 0.526 | 0.488 | 0.471 | 0.48 | 0.385 | 0.34 | 0.685 | 0.583 | 0.61 | 0.753 | 0.676 | 0.798 | 0.611 | 0.517 | 0.605 |
| NCI-H2126 | 0.842 | 0.775 | 0.782 | 0.721 | 0.575 | 0.964 | 0.846 | 0.857 | 0.876 | 0.919 | 0.918 | 0.904 | 0.887 | 0.759 | 0.603 | 0.895 | 0.775 | 0.801 | 0.478 | 0.731 |
| LXF-289 | 0.186 | 0.16 | 0.214 | 0.177 | 0.205 | 1.09 | 0.961 | 1.07 | 1.01 | 1.1 | 0.65 | 0.675 | 0.712 | 0.596 | 0.711 | 0.699 | 0.839 | 0.946 | 0.751 | 0.752 |
| NCI-H2009 | 0.715 | 0.58 | 0.758 | 0.713 | 0.655 | 0.663 | 0.637 | 0.715 | 0.718 | 0.621 | 1.04 | 0.936 | 1.01 | 0.959 | 0.999 | 0.761 | 0.783 | 0.72 | 0.656 | 0.668 |
| SW 900 | 0.575 | 0.675 | 0.527 | 0.417 | 0.531 |  | 0.946 |  | 0.812 | 0.794 | 0.168 | 0.167 | 0.174 | 0.174 | 0.165 | 0.361 |  | 0.616 | 0.603 | 0.428 |
